The values below come from patent US10961247B2, “Pyrazolopyrimidine derivatives as kinase inhibitor” (Daewoong Pharmaceutical Co., Ltd., priority 2016, dated 2021).

The target of assay [1] is Recombinant purified human BTK (Homo sapiens (Human), UniProt Q06187). Briefly: BTK enzyme inhibitory activity, ADP Glo kinase assay (Promega V9071). The assay is classed as biochemical. Particulars: for IC50: ATP 10 uM, 1 hour 30° C.; for inhibition at 0.1 µM: 100 nM compound. How it is done:
(§1) JAK3 and BTK kinase inhibitory activities were measured for the compounds prepared in the above Examples through in vitro analysis on the ADP Glow (Glo) platform.
(§2) Specifically, the inhibitory activities of JAK3 and BTK kinase were measured using a JAK3 kinase assay kit (Promega, V9441) and a BTK kinase assay kit (Promega, V9071) which were purchased from Promega. Recombinant purified human JAK3 and BTK were diluted with 1×kinase reaction buffer (JAK3: 40 mM Tris-Cl, pH 7.5, 20 mM MgCl2, 0.1 mg/mL BSA and 50 uM DTT/BTK: 40 mM Tris-Cl, pH 7.5, 20 mM MgCl2, 0.1 mg/mL BSA, 2 mM MnCl2 and 50 uM DTT) and added to a 96 well plate (JAK3: final concentration of 4 ng per reaction/BTK: final concentration of 8 ng per reaction). The compounds were treated so as to be finally a 1% DMSO aqueous solution, and a substrate cocktail containing ATP (JAK3: final concentration of 5 uM/BTK: final concentration of 10 uM) and 0.2 μg/μL of Poly(Glu4, Tyr1) peptide (JAK3 and BTK final concentration) in the total […] reactants was added to a 96-well plate to initiate enzymatic reaction. After incubation (30° C.) for 1 hour, equivalent volume ([…] per reaction) of ADP Glo was added and incubated (30° C.) for 40 minutes at room temperature. Then, a kinase detection reagent ([…] per reaction) was added and incubated (30° C.) for 30 minutes at room temperature. The kinase activity was measured by chemiluminescence according to the instructions of ADP Glo kinase assay kit, and the inhibitory activity of the compounds according to the present invention was calculated. For the analysis of the results of each compound, Microsoft Excel was used, and IC50 values were calculated by SigmaPlot software.
For orientation: ADP-Glo turns the ADP formed in a reaction into a luminescent signal.

The target of assay [2] is Recombinant purified human JAK3 (Homo sapiens (Human), UniProt P52333). In words: JAK3 enzyme inhibitory activity, ADP Glo kinase assay (Promega V9441). Type of assay: biochemical. The following applies: ATP 5 uM, 1 hour 30° C. Here is the method: as §1, §2
Recombinant purified human JAK3, sequence (P52333 whole entry): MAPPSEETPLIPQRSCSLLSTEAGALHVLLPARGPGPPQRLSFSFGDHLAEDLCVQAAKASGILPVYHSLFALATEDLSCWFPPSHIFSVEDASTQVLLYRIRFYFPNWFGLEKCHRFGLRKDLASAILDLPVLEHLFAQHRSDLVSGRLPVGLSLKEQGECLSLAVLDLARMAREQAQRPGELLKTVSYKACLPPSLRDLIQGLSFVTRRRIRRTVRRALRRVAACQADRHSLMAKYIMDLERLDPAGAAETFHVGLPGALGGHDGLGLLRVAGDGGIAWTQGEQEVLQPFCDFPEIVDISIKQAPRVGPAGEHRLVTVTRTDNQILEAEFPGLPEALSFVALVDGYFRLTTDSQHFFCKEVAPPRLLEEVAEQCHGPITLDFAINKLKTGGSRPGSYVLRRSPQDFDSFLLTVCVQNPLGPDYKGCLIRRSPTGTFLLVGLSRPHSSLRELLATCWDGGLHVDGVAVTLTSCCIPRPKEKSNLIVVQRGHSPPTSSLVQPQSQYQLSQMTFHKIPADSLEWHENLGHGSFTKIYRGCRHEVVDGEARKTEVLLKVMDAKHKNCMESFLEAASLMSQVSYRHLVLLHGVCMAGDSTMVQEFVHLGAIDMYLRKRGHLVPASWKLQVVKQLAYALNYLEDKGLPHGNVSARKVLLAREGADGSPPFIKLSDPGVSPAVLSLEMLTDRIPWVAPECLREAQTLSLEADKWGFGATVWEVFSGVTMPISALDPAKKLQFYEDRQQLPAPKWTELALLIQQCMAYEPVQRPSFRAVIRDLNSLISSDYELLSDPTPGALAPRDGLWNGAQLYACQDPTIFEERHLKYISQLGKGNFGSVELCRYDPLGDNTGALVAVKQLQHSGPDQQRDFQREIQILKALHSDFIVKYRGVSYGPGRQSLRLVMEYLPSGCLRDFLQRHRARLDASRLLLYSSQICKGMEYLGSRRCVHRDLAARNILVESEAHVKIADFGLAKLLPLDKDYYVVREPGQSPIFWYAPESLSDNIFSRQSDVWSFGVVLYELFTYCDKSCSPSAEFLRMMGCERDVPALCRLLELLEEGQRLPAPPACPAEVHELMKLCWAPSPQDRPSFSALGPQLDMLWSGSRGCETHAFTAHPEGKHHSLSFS

Recombinant purified human BTK, sequence (Q06187 whole entry): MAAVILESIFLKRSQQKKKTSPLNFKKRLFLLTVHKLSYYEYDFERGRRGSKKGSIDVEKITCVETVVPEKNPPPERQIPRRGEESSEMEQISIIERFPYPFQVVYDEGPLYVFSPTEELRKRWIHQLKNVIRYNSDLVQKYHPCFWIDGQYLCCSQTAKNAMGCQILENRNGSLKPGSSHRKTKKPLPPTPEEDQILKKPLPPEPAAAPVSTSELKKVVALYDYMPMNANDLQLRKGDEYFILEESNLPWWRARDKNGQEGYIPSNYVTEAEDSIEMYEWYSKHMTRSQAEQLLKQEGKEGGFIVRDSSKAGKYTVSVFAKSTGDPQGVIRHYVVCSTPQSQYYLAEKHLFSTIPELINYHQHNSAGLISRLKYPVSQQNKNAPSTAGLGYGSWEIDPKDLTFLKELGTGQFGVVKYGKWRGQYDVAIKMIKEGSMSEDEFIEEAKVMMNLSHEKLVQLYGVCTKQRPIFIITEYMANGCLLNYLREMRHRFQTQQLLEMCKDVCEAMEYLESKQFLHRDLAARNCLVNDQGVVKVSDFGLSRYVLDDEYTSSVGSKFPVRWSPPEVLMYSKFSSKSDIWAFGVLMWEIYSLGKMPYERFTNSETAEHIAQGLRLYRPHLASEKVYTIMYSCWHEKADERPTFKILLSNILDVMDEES

On to `C=CC(=O)N1CCC[C@@H](Sc2nc(Nc3cnn(CC)c3)nc3[nH]cc(Cl)c23)C1` [Example 109, (R)-1-(3-((5-chloro-2-((1-ethyl-1H-pyrazol-4-yl)amino)-7H-pyrrolo[2,3-d]pyrimidin-4-yl)thio)piperidin-1-yl)prop-2-en-1-one], for which the IC50 in assay [1] came to 2 nM; in assay [2], 0.3 nM.

On to `C=CC(=O)N1CCC[C@@H](Nc2nc(Nc3cnoc3)nc3[nH]nc(SC)c23)C1` [Example 130, (R)-1-(3-((6-(isoxazol-4-ylamino)-3-(methylthio)-1H-pyrazolo[3,4-d]pyrimidin-4-yl)amino)piperidin-1-yl)prop-2-en-1-one], for which the figures for the IC50 in assay [1] and in assay [2] were 1.1 nM and 9 nM, respectively.

On to `C[C@@H]1CCN(C(=O)CC#N)C[C@@H]1N(C)c1nc(Nc2ccc(N3CCN(C)CC3)cc2)nc2[nH]ccc12` [Example 28, 3-((3R,4R)-4-methyl-3-(methyl(2-(4-(4-methylpiperazin-1-yl)phenylamino)-7H-pyrrolo[2,3-d]pyrimidin-4-yl)amino)piperidin-1-yl)-3-oxopropanenitrile], for which the inhibition at 0.1 µM in assay [1] was 3.3%.

In the case of `C=CC(=O)N1CC[C@@H](C)[C@@H](Nc2nc(Nc3cnn(CC)c3)nc3[nH]ccc23)C1` [Example 107, 1-((3R,4R)-3-((2-((1-ethyl-1H-pyrazol-4-yl)amino)-7H-pyrrolo[2,3-d]pyrimidin-4-yl)amino)-4-methylpiperidin-1-yl)prop-2-en-1-one], the values for the half-inhibitory concentration (IC50) in assay [1] and in assay [2] were 7.8 nM and 3.7 nM, respectively.

Turning to `C=CC(=O)N1CC[C@@H](C)[C@@H](N(C)c2nc(Nc3ccc(N4CCN(C)CC4)cc3)nc3[nH]ccc23)C1` [Example 27, 1-((3R,4R)-4-methyl-3-(methyl(2-(4-(4-methylpiperazin-1-yl)phenylamino)-7H-pyrrolo[2,3-d]pyrimidin-4-yl)amino)piperidin-1-yl)prop-2-en-1-one], the inhibition at 0.1 µM in assay [1] was found to be 48%.

On to `C=CC(=O)N1CCC[C@@H](Nc2nc(Nc3cnn(CC)c3)nc3[nH]nc(Cl)c23)C1` [Example 46, (R)-1-(3-(3-chloro-6-(1-ethyl-1H-pyrazol-4-ylamino)-1H-pyrazolo[3,4-d]pyrimidin-4-ylamino)piperidin-1-yl)prop-2-en-1-one], for which the IC50 was determined as 2 nM in assay [1] and 0.6 nM in assay [2].

Regarding `C=CC(=O)NC1CCCC(Nc2nc(Nc3ccc(N4CCN(C)CC4)cc3)nc3[nH]ccc23)C1` (stereo not shown) [Example 29, N-(3-(2-(4-(4-methylpiperazin-1-yl)phenylamino)-7H-pyrrolo[2,3-d]pyrimidin-4-ylamino)cyclohexyl)acrylamide], in assay [1], the inhibition at 0.1 µM is 47.1%.

Turning to `CC#CC(=O)N1CCC[C@@H](Nc2nc(Nc3ccc(N4CCN(C)CC4)cc3)nc3[nH]cc(Cl)c23)C1` [Example 143, (R)-1-(3-((5-chloro-2-((4-(4-methylpiperazin-1-yl)phenyl)amino)-7H-pyrrolo[2,3-d]pyrimidin-4-yl)amino)piperidin-1-yl)but-2-yn-1-one], the figures for the IC50 in assay [1] and in assay [2] were 165 nM and 19.3 nM, respectively.

One may read the IC50 as the point on the concentration scale where inhibition reaches its midpoint. The term inhibition denotes the drop in the measured response relative to a control, in per cent.
